The values that follow come from US7138426B2, “Estrogen receptor modulators” (Merck & Co., Inc., priority 2003, dated 2006).

In this assay the test system is MCF-7 cells. The assay is described as follows: MCF-7 Estrogen Dependent Proliferation Assay. In kind it is cell-based. Particulars: Homo sapiens, MCF7, addition to Estrogen Depleted Media (EDM), read-out: EC50 of growth stimulation of MCF-7 cells. From the text: MCF-7 cells (ATCC #HTB-22) are human mammary gland adenocarcinoma cells that require estrogen for growth. The growth media (GM) for the MCF-7 cells is Minimum Essential Media (without phenol red) supplemented with fetal bovine serum (FBS) to 10%. The FBS serves as the sole source of estrogen and this GM supports the full growth of the cells and is used for the routine growth of the cell cultures. When MCF-7 cells are placed in a media in which 10% Charcoal-Dextran treated fetal bovine serum (CD-FBS) is substituted for FBS, the cells will cease to divide but will remain viable. […] The addition of estradiol to EDM stimulates the growth of the MCF-7 cells in a dose dependent manner with an EC50 of 2 pM. Growing MCF-7 cells are washed several times with EDM and the cultures then maintained in EDM for a minimum of 6 days in order to deplete the cells of endogenous estrogen. […] At this point, the culture supernatants are aspirated, the cells washed 2× with PBS, the wash solution aspirated and the protein content of each well determined. Each drug dilution is evaluated on a minimum of 5 wells and the range of dilution of the test compounds in the assay is 0.001 nM to 1000 nM. […] The assay is terminated at day 8–10 when the appropriate controls reach 80–90% confluency and the protein content of each well is determined as above.

`C[C@]12CC[C@@H]3c4ccc(O)cc4CC[C@H]3[C@@H]1CC[C@@H]2O` [estradiol]: the EC50 (commonly the concentration that produces a half-maximal response) turned out to be 2 pM.
